In patent publication US20240368209A1, “GEMCITABINE ANTICANCER DERIVATIVE AND ANTICANCER PHARMACEUTICAL USE” (ASCENTAWITS PHARMACEUTICALS, LTD., priority 2021, published 2024):

Tests used:
[1] = Metabolic stability in mouse liver microsomes; assay type: in vitro ADME
Description: (§1) Main solutions were prepared according to Table 9 below:
(§2) (II) Two Separate Experiments were Performed • a) With cofactor (NADPH): 25 μL of 10 mM NADPH was added to the culture broth. The final concentration of liver microsomes was 0.5 mg/mL, and the final concentration of NADPH was 1 mM. • b) Without cofactor (NADPH): 25 μL of 100 mM phosphate buffer was added. The final concentration of liver microsomes was 0.5 mg/mL. The mixture was preheated at 37° C. for 10 minutes. (III) 25 μL of […] control compound or test compound solution was added to start the reaction. […] The final concentrations of the test compound and control compound were both 1 μM. The culture broth was cultured in water at 37° C. (IV) Aliquots of 30 μL were collected from the reaction solution at 0.5, 5, 15, 30, and 60 minutes, respectively. 5 volumes of cold acetonitrile and IS (internal standard, containing 100 nM of alprazolam, 200 nM of caffeine, and 100 nM of tolylbutanamide) were added to stop the reaction. […] 100 μL of supernatant was taken and mixed with 100 μL of ultrapure water, equally divided and analyzed with LC-MS/MS.
(§3) All calculations were conducted using Microsoft Excel. The peak area was determined from the extracted ion chromatogram.
(§4) [formula] [formula] [formula] • wherein, QH is the hepatic blood flow (mL/min/kg) in Table 10, and fub is the fraction of drug unbound in plasma, and assumed as 1.

[2] = Maximal tolerance dose (MTD) test; assay type: in vivo; settings: mice
Description: According to the research scheme in Table 14, mice were grouped and administered at the concentrations and dosage levels shown in Table 14. On the 1st to 5th day and the 14th to 19th day, intraperitoneal injection of a solvent control or compound H11 at different dosage levels was performed, with a dose volume of 10 mL/kg. Animals in Groups 1, 3, and 4 were put to death and autopsied on the 22nd day, and animals in Group 2 were put to death and autopsied on the 16th day.
The evaluated parameters included cage-side observation, detailed clinical observation, and post-administration observation (approximately 1-2 hours after dosing), body weight and weight change, food intake, and gross pathology.

[3] = Metabolic stability in rat liver microsomes; assay type: in vitro ADME
Description: as §1, §2, §3, §4

[4] = Metabolic stability in monkey liver microsomes; assay type: in vitro ADME
Description: as §1, §2, §3, §4

[5] = Plasma stability in rat plasma; settings: rat, plasma
Description: 1 mM working solution of the test compound was prepared in DMSO. 1 mM working solution of propantheline was prepared in acetonitrile. 1 mM working solution of lovastatin (mevinolin) was prepared in DMSO. Propantheline was used as a positive control for human, monkey, dog, and mouse plasma stability tests. Lovastatin was a positive control for rat plasma stability test.
• A. 398 μL of plasma per well was added to the culture plate, and the plate was preheated at 37° C. for 15 minutes. • B. After preincubation, 2 μL of working solution (test solution or control solution) was added to the 398 μL plasma mentioned above, resulting in a final concentration of 5 μM. The final concentration of organic solvents was 0.5%. The test was conducted in duplicate. • C. The reaction sample was incubated at 37° C. • D. 50 μL was extracted from the reaction sample at 0, 15, 30, 60, and 120 minutes, respectively. […] 100 μL of supernatant was taken and transferred to a new plate. The supernatant was diluted with ultrapure water according to the LC-MS signal response and peak shape.
Samples were analyzed with LC-MS/MS. All calculations were conducted using Microsoft Excel. The peak area ratio was determined from the extracted ion chromatogram. • (1) The percentage of the remaining compound at each time point was calculated with the following formula: […]
wherein the slope value k was determined by linear regression of the natural logarithm of the remaining percentage of the parent drug vs. incubation time curve.

[6] = Metabolic stability in human liver microsomes; assay type: in vitro ADME
Description: as §1, §2, §3, §4

[7] = Plasma stability in human plasma; assay type: in vitro ADME
Description: The final concentration of organic solvents was 0.5%. The test was conducted in duplicate. • C.
Samples were analyzed with LC-MS/MS. All calculations were conducted using Microsoft Excel.

[8] = read-out: In vitro half-life t1/2
[9] = read-out: In vitro intrinsic clearance CLint

For `CC(C)NP(=O)(OCc1ccc([N+](=O)[O-])c(Oc2ccc(-c3ccc(F)cc3)c(F)c2)c1)OCC1OC(C2N=CC(N)=NC2=O)C(F)(F)C1O` (centres unmarked) [Compound H11], the “Hepatic Extraction Ratio (ER)” value [1] was 0.73, the “Predicted Hepatic CLH” value [1] was 65.90 mL/min/kg and the “clearance and stability in liver microsomes (in words)” value (“clearance and stability” for short) [1] was “medium clearances and certain stability”. For the same compound, the “Remaining percentage (%)” value ([1]; NADPH added, 0.5 minutes, 1 μM) was 100.00%, the “Remaining percentage (%)” value ([1]; NADPH added, 5 minutes) was 85.55% and the “Remaining percentage (%)” value ([1]; NADPH added, 15 minutes) was 55.03%. For the same compound, the “Remaining percentage (%)” value ([1]; NADPH added, 30 minutes) was 36.05%, the “Remaining percentage (%)” value ([1]; NADPH added, 60 minutes) was 16.85% and the “Remaining percentage (%)” value ([1]; NADPH not added, 0.5 minutes) was 100.00%. The “Remaining percentage (%)” value ([1]; NADPH not added, 60 minutes) was 93.32%, the half-life at 1 μM [1, 8] was 23.3 min and the microsomal CLint at 1 μM [1, 9] was 59.5 µL/min/mg. The CLint scaled at 1 μM ([1]; read-out: Scale-up CLint) was 246 mL/min/kg, the Clinical symptoms ([2]; 80, 160, 320 mg/kg/day i.p.) was “No abnormal compound-related clinical manifestation was observed” and the “Impact on animal weight and food intake” value ([2]; 80, 160, 320 mg/kg/day i.p.) was “No abnormal compound-related change in body weight or food intake was observed”. For the same compound, the Mortality of animals ([2]; 80, 160, 320 mg/kg/day i.p., two rounds of 5 days) was “all experimental animals survived until the planned autopsy”, the “dose at which enlargement of the spleen was visible (pathological examination)” value ([2]; i.p.) was at least 160 mg/kg and the “dose group with change to white in the renal capsule (pathological examination)” value ([2]; i.p.) was 320 mg/kg. For the same compound, the maximal tolerance dose ([2]; intraperitoneal injection once a day for 5 consecutive days) was 320 mg/kg, the “Hepatic Extraction Ratio (ER)” value [3] was 0.71 and the “Predicted Hepatic CLH” value [3] was 48.43 mL/min/kg. For the same compound, the “clearance and stability” value [3] was “medium clearances and certain stability”, the “Remaining percentage (%)” value ([3]; NADPH added, 0.5 minutes, 1 μM) was 100.00% and the “Remaining percentage (%)” value ([3]; NADPH added, 5 minutes) was 85.67%. The “Remaining percentage (%)” value ([3]; NADPH added, 15 minutes) was 56.17%, the “Remaining percentage (%)” value ([3]; NADPH added, 30 minutes) was 29.55% and the “Remaining percentage (%)” value ([3]; NADPH added, 60 minutes) was 13.20%. For the same compound, the “Remaining percentage (%)” value ([3]; NADPH not added, 0.5 minutes) was 100.00%, the “Remaining percentage (%)” value ([3]; NADPH not added, 60 minutes) was 103.20% and the half-life at 1 μM [3, 8] was 20.1 min. For the same compound, the microsomal CLint at 1 μM [3, 9] was 69 µL/min/mg, the CLint scaled at 1 μM ([3]; read-out: Scale-up CLint) was 168 mL/min/kg and the “Hepatic Extraction Ratio (ER)” value [4] was 0.88. The “Predicted Hepatic CLH” value [4] was 38.81 mL/min/kg, the “clearance and stability” value [4] was “high clearance and poor stability” and the “Remaining percentage (%)” value ([4]; NADPH added, 0.5 minutes, 1 μM) was 100.00%. The “Remaining percentage (%)” value ([4]; NADPH added, 5 minutes) was 46.01%, the “Remaining percentage (%)” value ([4]; NADPH added, 15 minutes) was 13.27% and the “Remaining percentage (%)” value ([4]; NADPH added, 30 minutes) was 0.59%. The “Remaining percentage (%)” value ([4]; NADPH added, 60 minutes) was 0.09%, the “Remaining percentage (%)” value ([4]; NADPH not added, 0.5 minutes) was 100.00% and the “Remaining percentage (%)” value ([4]; NADPH not added, 60 minutes) was 105.87%. It also gave a half-life at 1 μM ([4]; monkey, read-out: In vitro half-life t1/2) of 5.06 min, a microsomal CLint at 1 μM ([4]; monkey, read-out: In vitro intrinsic clearance CLint) of 275 µL/min/mg and a CLint scaled at 1 μM ([4]; monkey, read-out: Scale-up CLint) of 330 mL/min/kg. For the same compound, the “t1/2 (min)” value [5] was “∞”, the “Remaining percentage (%)” value ([5]; 0 h, 5 μM) was 100.00% and the “Remaining percentage (%)” value ([5]; 0.25 h, 5 µM) was 108.59%. The “Remaining percentage (%)” value ([5]; 0.5 h, 5 µM) was 105.39%, the “Remaining percentage (%)” value ([5]; 1 h, 5 µM) was 100.74% and the “Remaining percentage (%)” value ([5]; 2 h, 5 µM) was 109.53%. For the same compound, the “Hepatic Extraction Ratio (ER)” value [6] was 0.69, the “Predicted Hepatic CLH” value [6] was 14.41 mL/min/kg and the “clearance and stability” value [6] was “medium clearances and certain stability”. The “Remaining percentage (%)” value ([6]; NADPH added, 0.5 minutes, 1 μM) was 100.00%, the “Remaining percentage (%)” value ([6]; NADPH added, 5 minutes) was 86.00% and the “Remaining percentage (%)” value ([6]; NADPH added, 15 minutes) was 63.82%. The “Remaining percentage (%)” value ([6]; NADPH added, 30 minutes) was 43.87%, the “Remaining percentage (%)” value ([6]; NADPH added, 60 minutes) was 26.14% and the “Remaining percentage (%)” value ([6]; NADPH not added, 0.5 minutes) was 100.00%. The “Remaining percentage (%)” value ([6]; NADPH not added, 60 minutes) was 100.86%, the half-life at 1 μM [6, 8] was 31 min and the microsomal CLint at 1 μM [6, 9] was 44.7 µL/min/mg. The CLint scaled at 1 μM ([6]; read-out: Scale-up CLint) was 46 mL/min/kg, the “t1/2 (min)” value [7] was “∞” and the “Remaining percentage (%)” value ([7]; 0 min, 5 μM, 37° C.) was 100.00%. For the same compound, the “plasma stability (in words)” value ([7]; 37° C., at least 2 hours) was “stable and has no significant metabolism”, the “Remaining percentage (%)” value ([7]; 15 min) was 95.74% and the “Remaining percentage (%)” value ([7]; 30 min) was 94.17%. The “Remaining percentage (%)” value ([7]; 60 min) was 102.77% and the “Remaining percentage (%)” value ([7]; 120 min) was 99.46%.
